Test results published in ChEMBL document CHEMBL4396934, “Novel α,β-unsaturated hydroxamic acid derivatives overcome cisplatin resistance” (Bioorg Med Chem, 2019).
Active and inactive are the calls of the source. The rule behind the calls is not given here.

Species: Homo sapiens
Assay: (§1) Potentiation of cisplatin-induced apoptosis in human Cal27CisR cells assessed as caspase-3/7 activity at 1 uM preincubated for 48 hrs followed by cisplatin addition and further incubation for 24 hrs treated with 20 uM pan capsase inhibitor QVD for 30 mins prior to compound addition by CellEvent caspase 3/7 green detection reagent/Hoechst 33342 staining based arrayscan analysis
Format: functional, cell-based
Settings: not given

Structure (SMILES)	Activity
O=C(/C=C/c1ccc(CONC(=O)c2ccc3ccccc3n2)cc1)NO	inactive
COc1ccc(NC(=O)NOCc2ccc(/C=C/C(=O)NO)cc2)cc1	inactive

System: CAL-27
Assay: as §1, with “CAL27” for “Cal27CisR”, “0.5” for “1”
Format: functional, cell-based
Settings: not given

Structure (SMILES)	Activity
O=C(/C=C/c1ccc(CONC(=O)c2ccc3ccccc3n2)cc1)NO	inactive
COc1ccc(NC(=O)NOCc2ccc(/C=C/C(=O)NO)cc2)cc1	inactive

Species: Homo sapiens
Assay: (§2) Potentiation of cisplatin-induced apoptosis in human Cal27CisR cells assessed as increase in caspase-3/7 activation at 1 uM preincubated for 48 hrs followed by cisplatin addition and further incubation for 24 hrs by CellEvent caspase 3/7 green detection reagent/Hoechst 33342 staining based arrayscan analysis
Format: functional, cell-based
Settings: not given

Structure (SMILES)	Activity
O=C(/C=C/c1ccc(CONC(=O)c2ccc3ccccc3n2)cc1)NO	Active
COc1ccc(NC(=O)NOCc2ccc(/C=C/C(=O)NO)cc2)cc1	Active

System: CAL-27
Assay: as §2, with “CAL27” for “Cal27CisR”, “0.5” for “1”
Format: functional, cell-based
Settings: not given

Structure (SMILES)	Activity
O=C(/C=C/c1ccc(CONC(=O)c2ccc3ccccc3n2)cc1)NO	Active
COc1ccc(NC(=O)NOCc2ccc(/C=C/C(=O)NO)cc2)cc1	Active

Species: Homo sapiens
Assay: Induction of apoptosis in human Cal27CisR cells assessed as increase in caspase-3/7 activation at 1 uM after 48 hrs by CellEvent caspase 3/7 green detection reagent/Hoechst 33342 staining based arrayscan analysis
Format: functional, cell-based
Settings: not given

Structure (SMILES)	Activity
O=C(/C=C/c1ccc(CONC(=O)c2ccc3ccccc3n2)cc1)NO	Active
COc1ccc(NC(=O)NOCc2ccc(/C=C/C(=O)NO)cc2)cc1	Active

System: CAL-27
Assay: Induction of apoptosis in human CAL27 cells assessed as caspase-3/7 activity at 0.5 uM after 48 hrs by CellEvent caspase 3/7 green detection reagent/Hoechst 33342 staining based arrayscan analysis
Format: functional, cell-based
Settings: not given

Structure (SMILES)	Activity
O=C(/C=C/c1ccc(CONC(=O)c2ccc3ccccc3n2)cc1)NO	inactive
COc1ccc(NC(=O)NOCc2ccc(/C=C/C(=O)NO)cc2)cc1	inactive

System: not listed separately
Assay: Potentiation of cisplatin-induced apoptosis in human Cal27CisR cells assessed as accumulation at sub-G1 phase at 1 uM preincubated for 48 hrs followed by cisplatin addition and further incubation for 24 hrs by propidium iodide staining based flow cytometry (reference value: 8.3 +/- 1.06%)
Format: functional
Settings: not given

Structure (SMILES)	Activity
O=C(/C=C/c1ccc(CONC(=O)c2ccc3ccccc3n2)cc1)NO	38.9%
COc1ccc(NC(=O)NOCc2ccc(/C=C/C(=O)NO)cc2)cc1	52.2%

System: CAL-27
Assay: Potentiation of cisplatin-induced apoptosis in human CAL27 cells assessed as increase in accumulation at sub-G1 phase at 0.5 uM preincubated for 48 hrs followed by cisplatin addition and further incubation for 24 hrs by propidium iodide staining based flow cytometry relative to cisplatin alone
Format: functional
Settings: not given

Structure (SMILES)	fold change (FC)
O=C(/C=C/c1ccc(CONC(=O)c2ccc3ccccc3n2)cc1)NO	3
COc1ccc(NC(=O)NOCc2ccc(/C=C/C(=O)NO)cc2)cc1	3

System: CAL-27
Assay: Potentiation of cisplatin-induced apoptosis in human CAL27 cells assessed as accumulation at sub-G1 phase at 0.5 uM preincubated for 48 hrs followed by cisplatin addition and further incubation for 24 hrs by propidium iodide staining based flow cytometry (reference value: 11.5 +/- 0.89%)
Format: functional
Settings: not given

Structure (SMILES)	Activity
O=C(/C=C/c1ccc(CONC(=O)c2ccc3ccccc3n2)cc1)NO	34.5%
COc1ccc(NC(=O)NOCc2ccc(/C=C/C(=O)NO)cc2)cc1	36.7%

System: CAL-27
Assay: Induction of apoptosis in human CAL27 cells assessed as accumulation at sub-G1 phase at 0.5 uM after 48 hrs by propidium iodide staining based flow cytometry
Format: functional, cell-based
Settings: not given

Structure (SMILES)	Activity
O=C(/C=C/c1ccc(CONC(=O)c2ccc3ccccc3n2)cc1)NO	inactive
COc1ccc(NC(=O)NOCc2ccc(/C=C/C(=O)NO)cc2)cc1	inactive

System: not listed separately
Assay: Potentiation of cisplatin-induced apoptosis in human Cal27CisR cells assessed as increase in accumulation at sub-G1 phase at 1 uM preincubated for 48 hrs followed by cisplatin addition and further incubation for 24 hrs by propidium iodide staining based flow cytometry relative to cisplatin alone
Format: functional
Settings: not given

Structure (SMILES)	fold change (FC)
O=C(/C=C/c1ccc(CONC(=O)c2ccc3ccccc3n2)cc1)NO	4.7
COc1ccc(NC(=O)NOCc2ccc(/C=C/C(=O)NO)cc2)cc1	6

Species: Homo sapiens
Assay: Induction of apoptosis in human Cal27CisR cells assessed as accumulation at sub-G1 phase at 1 uM after 48 hrs by propidium iodide staining based flow cytometry
Format: functional, cell-based
Settings: not given

Structure (SMILES)	Activity
O=C(/C=C/c1ccc(CONC(=O)c2ccc3ccccc3n2)cc1)NO	inactive
COc1ccc(NC(=O)NOCc2ccc(/C=C/C(=O)NO)cc2)cc1	inactive

System: not listed separately
Assay: Potentiation of cisplatin-induced cytotoxicity in human Cal27CisR cells assessed as fold reduction in cisplatin IC50 at 1 uM preincubated for 48 hrs followed by cisplatin addition and further incubation for 72 hrs by MTT assay relative to cisplatin alone
Format: functional
Settings: not given

Structure (SMILES)	Ratio IC50
O=C(/C=C/c1ccc(CONC(=O)c2ccc3ccccc3n2)cc1)NO	6.86
COc1ccc(NC(=O)NOCc2ccc(/C=C/C(=O)NO)cc2)cc1	4.76

System: CAL-27
Assay: Potentiation of cisplatin-induced cytotoxicity in human CAL27 cells assessed as fold reduction in cisplatin IC50 at 0.5 uM preincubated for 48 hrs followed by cisplatin addition and further incubation for 72 hrs by MTT assay relative to cisplatin alone
Format: functional
Settings: not given

Structure (SMILES)	Ratio IC50
O=C(/C=C/c1ccc(CONC(=O)c2ccc3ccccc3n2)cc1)NO	5.69
COc1ccc(NC(=O)NOCc2ccc(/C=C/C(=O)NO)cc2)cc1	2.95

Target: T1, Histone deacetylase 8 (Homo sapiens, UniProt Q9BY41)
T1 sequence (Q9BY41 whole entry): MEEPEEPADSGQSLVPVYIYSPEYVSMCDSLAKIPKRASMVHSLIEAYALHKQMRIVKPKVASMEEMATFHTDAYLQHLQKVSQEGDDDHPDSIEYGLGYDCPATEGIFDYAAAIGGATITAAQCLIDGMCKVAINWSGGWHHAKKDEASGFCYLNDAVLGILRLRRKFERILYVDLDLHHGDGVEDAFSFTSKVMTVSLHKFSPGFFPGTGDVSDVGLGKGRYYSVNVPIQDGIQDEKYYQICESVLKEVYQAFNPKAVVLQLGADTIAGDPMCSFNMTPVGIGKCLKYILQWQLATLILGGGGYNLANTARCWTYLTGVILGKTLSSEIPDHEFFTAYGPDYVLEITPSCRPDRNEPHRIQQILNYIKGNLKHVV
Assay: Inhibition of C-terminal His-fusion tagged/N-terminal Strep-2 tagged recombinant human HDAC8 (1 to 377 residues) expressed in insect cells using Boc-Lys(TFa)-AMC as substrate preincubated for 5 mins followed by substrate addition and further incubation for 90 mins measured after 15 mins by microplate reader based fluorescence assay
Settings: not given

Ki	Structure (SMILES)
4700 nM	O=C(/C=C/c1ccc(CONC(=O)c2ccc3ccccc3n2)cc1)NO
4210 nM	COc1ccc(NC(=O)NOCc2ccc(/C=C/C(=O)NO)cc2)cc1

Target: T2, Protein deacetylase HDAC6 (Homo sapiens, UniProt Q9UBN7)
T2 sequence (Q9UBN7 whole entry): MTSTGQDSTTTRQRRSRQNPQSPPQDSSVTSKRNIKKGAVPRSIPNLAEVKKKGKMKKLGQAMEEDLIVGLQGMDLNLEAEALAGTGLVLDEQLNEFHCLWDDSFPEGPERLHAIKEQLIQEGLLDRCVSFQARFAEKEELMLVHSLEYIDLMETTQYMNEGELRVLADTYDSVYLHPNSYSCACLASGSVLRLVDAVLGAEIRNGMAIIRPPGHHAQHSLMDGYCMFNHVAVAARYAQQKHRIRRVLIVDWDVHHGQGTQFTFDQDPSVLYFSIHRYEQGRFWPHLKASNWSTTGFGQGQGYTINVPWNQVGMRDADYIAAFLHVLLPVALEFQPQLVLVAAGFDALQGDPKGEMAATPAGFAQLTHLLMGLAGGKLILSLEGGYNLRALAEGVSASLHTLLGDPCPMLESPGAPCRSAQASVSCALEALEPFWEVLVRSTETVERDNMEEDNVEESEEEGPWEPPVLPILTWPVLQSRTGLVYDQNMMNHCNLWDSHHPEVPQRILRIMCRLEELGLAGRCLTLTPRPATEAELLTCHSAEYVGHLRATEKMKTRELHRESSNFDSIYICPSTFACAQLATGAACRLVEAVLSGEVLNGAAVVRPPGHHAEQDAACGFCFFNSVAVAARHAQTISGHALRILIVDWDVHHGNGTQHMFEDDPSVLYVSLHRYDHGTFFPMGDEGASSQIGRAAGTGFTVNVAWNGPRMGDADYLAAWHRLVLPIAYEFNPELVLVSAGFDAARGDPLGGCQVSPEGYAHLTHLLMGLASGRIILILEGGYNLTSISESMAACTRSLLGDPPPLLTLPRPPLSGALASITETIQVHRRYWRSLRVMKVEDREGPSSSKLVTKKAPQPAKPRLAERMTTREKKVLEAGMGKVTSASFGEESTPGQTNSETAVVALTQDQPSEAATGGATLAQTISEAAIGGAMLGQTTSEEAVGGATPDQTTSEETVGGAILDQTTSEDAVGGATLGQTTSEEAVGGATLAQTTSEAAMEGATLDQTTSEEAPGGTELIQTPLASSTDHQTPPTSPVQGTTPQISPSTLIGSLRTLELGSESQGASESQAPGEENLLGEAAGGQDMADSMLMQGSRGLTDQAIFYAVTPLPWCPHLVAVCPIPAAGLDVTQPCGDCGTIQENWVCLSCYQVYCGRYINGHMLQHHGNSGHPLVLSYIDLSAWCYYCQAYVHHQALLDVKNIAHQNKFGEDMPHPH
Assay: (§3) Inhibition of N-terminal GST-tagged recombinant human HDAC6 (1 to 1215 residues) expressed in Baculovirus infected insect cells using Boc-Lys(Ac)-AMC as substrate preincubated for 5 mins followed by substrate addition and further incubation for 90 mins measured after 15 mins by microplate reader based fluorescence assay
Settings: not given

Ki	Structure (SMILES)
100 nM	O=C(/C=C/c1ccc(CONC(=O)c2ccc3ccccc3n2)cc1)NO
120 nM	COc1ccc(NC(=O)NOCc2ccc(/C=C/C(=O)NO)cc2)cc1

Target: Histone deacetylase 4 (Homo sapiens, UniProt P56524)
Assay: as §3, with “C-terminal His-tagged/N-terminal” for “N-terminal”, “HDAC4 (627” for “HDAC6 (1”, “1084” for “1215”, “Boc-Lys(TFa)-AMC” for “Boc-Lys(Ac)-AMC”
Settings: not given

Chain of Histone deacetylase 4 (P56524 whole entry): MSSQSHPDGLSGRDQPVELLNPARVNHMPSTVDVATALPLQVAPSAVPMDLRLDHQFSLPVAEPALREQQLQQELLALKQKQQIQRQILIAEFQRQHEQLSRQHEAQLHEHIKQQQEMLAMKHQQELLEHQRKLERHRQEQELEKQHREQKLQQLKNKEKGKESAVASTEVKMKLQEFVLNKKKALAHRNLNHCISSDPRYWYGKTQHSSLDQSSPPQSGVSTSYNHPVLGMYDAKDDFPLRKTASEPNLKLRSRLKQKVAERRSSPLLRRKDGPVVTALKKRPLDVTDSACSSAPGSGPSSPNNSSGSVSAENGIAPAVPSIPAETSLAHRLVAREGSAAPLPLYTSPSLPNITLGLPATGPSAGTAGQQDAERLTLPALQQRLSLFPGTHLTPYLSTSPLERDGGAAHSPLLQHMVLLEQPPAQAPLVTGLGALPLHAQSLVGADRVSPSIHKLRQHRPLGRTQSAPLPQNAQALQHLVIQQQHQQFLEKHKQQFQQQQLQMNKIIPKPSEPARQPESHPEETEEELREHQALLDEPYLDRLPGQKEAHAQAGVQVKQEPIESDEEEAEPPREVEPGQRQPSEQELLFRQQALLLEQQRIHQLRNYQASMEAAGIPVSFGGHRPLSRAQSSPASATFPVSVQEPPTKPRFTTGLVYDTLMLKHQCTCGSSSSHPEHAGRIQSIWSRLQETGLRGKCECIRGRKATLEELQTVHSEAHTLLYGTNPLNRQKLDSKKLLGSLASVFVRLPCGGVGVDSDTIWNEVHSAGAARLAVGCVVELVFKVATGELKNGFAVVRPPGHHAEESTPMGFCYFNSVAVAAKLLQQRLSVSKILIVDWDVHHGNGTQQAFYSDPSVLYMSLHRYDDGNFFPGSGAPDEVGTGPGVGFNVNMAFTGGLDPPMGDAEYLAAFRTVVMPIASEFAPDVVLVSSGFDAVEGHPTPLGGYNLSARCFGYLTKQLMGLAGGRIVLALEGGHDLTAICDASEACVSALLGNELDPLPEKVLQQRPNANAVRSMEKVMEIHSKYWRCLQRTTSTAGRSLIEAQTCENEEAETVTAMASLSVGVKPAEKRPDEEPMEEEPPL

Ki	Structure (SMILES)
9540 nM	O=C(/C=C/c1ccc(CONC(=O)c2ccc3ccccc3n2)cc1)NO
25200 nM	COc1ccc(NC(=O)NOCc2ccc(/C=C/C(=O)NO)cc2)cc1

Target: Histone deacetylase 2 (Homo sapiens, UniProt Q92769)
Assay: biochemical
Format: cell-based
Settings: not given

Chain of Histone deacetylase 2 (Q92769 whole entry): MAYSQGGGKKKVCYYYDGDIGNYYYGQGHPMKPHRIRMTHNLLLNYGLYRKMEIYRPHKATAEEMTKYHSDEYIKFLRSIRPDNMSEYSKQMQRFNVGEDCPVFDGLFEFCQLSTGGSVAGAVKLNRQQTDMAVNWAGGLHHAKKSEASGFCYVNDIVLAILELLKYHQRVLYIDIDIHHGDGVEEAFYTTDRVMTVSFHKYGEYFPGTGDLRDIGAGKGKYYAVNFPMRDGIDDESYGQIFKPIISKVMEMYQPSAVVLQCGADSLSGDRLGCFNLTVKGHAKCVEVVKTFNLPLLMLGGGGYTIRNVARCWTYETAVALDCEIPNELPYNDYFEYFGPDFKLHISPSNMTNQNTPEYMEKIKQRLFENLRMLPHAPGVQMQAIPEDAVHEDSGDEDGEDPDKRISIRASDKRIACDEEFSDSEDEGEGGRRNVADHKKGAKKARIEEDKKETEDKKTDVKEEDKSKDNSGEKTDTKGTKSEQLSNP

Ki	Structure (SMILES)
70 nM	O=C(/C=C/c1ccc(CONC(=O)c2ccc3ccccc3n2)cc1)NO
150 nM	COc1ccc(NC(=O)NOCc2ccc(/C=C/C(=O)NO)cc2)cc1

Target: Histone deacetylase
Assay: Inhibition of HDAC in human A2780 cells using Boc-Lys(epsilon-Ac)-AMC as substrate preincubated for 18 hrs followed by substrate addition and further incubation for 3 hrs by microplate reader based fluorescence assay
Format: cell-based
Settings: not given

IC50	Structure (SMILES)
1540 nM	O=C(/C=C/c1ccc(CONC(=O)c2ccc3ccccc3n2)cc1)NO
570 nM	COc1ccc(NC(=O)NOCc2ccc(/C=C/C(=O)NO)cc2)cc1

System: CAL-27
Assay: Antiproliferative activity against human CAL27 cells after 72 hrs by microplate reader based MTT assay
Format: functional, cell-based
Settings: CAL-27, 72 h

Structure (SMILES)	IC50
O=C(/C=C/c1ccc(CONC(=O)c2ccc3ccccc3n2)cc1)NO	800 nM
COc1ccc(NC(=O)NOCc2ccc(/C=C/C(=O)NO)cc2)cc1	1700 nM

System: A2780
Assay: Antiproliferative activity against human A2780 cells after 72 hrs by microplate reader based MTT assay
Format: functional, cell-based
Settings: A2780, 72 h

IC50	Structure (SMILES)
790 nM	O=C(/C=C/c1ccc(CONC(=O)c2ccc3ccccc3n2)cc1)NO
1150 nM	COc1ccc(NC(=O)NOCc2ccc(/C=C/C(=O)NO)cc2)cc1

Target: Histone deacetylase
Assay: Inhibition of HDAC in human CAL27 cells using Boc-Lys(epsilon-Ac)-AMC as substrate preincubated for 18 hrs followed by substrate addition and further incubation for 3 hrs by microplate reader based fluorescence assay
Format: cell-based
Settings: not given

IC50	Structure (SMILES)
270 nM	O=C(/C=C/c1ccc(CONC(=O)c2ccc3ccccc3n2)cc1)NO
490 nM	COc1ccc(NC(=O)NOCc2ccc(/C=C/C(=O)NO)cc2)cc1
